According to a melting point compilation (Tetko et al.; mined from patent text by program, amines drawn as free bases though some values may be those of a salt):

| SMILES | melting point |
| --- | --- |
| COc1cc2ncc(C#N)c(Nc3ccc4sc(C)nc4c3)c2cc1OC | 118 to 120 °C |
| C#CC1(OC(=O)NCCCC)CCN(CCC=C(c2ccc(F)cc2)c2ccc(F)cc2)CC1 | 83 to 84 °C |
| CN(C)C(=O)CC1(C)OCCc2c1[nH]c1c3c(ccc21)CCCC3 (stereo not given) | 176 to 178 °C |
| CCC(=O)NNC(=O)C(=O)NC1CC(C)(C)NC(C)(C)C1 | 221 to 225 °C |
| O=C(O)CCCCCCNS(=O)(=O)c1ccc(Cl)cc1 | 128 to 129 °C |
| CC(C)CC(=O)Nc1cccc(-c2ccnc3c(C(=O)c4ccsc4)cnn23)c1 | 137 to 139 °C |
| CC(C)Oc1cc(-n2c(=O)[nH]c(CF)c(F)c2=O)c(F)cc1Cl | 152 to 154 °C |
| CCCCCCCCCCCCc1nnn(C(C(=O)Nc2c(OC)cc(OC)cc2OC)C(C)C)n1 (stereo not given) | 135 to 137 °C |
| COC(=O)C(=C(/C)c1cc(OC)cc(OC)c1)/C(=C\c1cc(OC)cc(OC)c1)C(=O)O | 137 to 140 °C |
| CCCOCCOC(=O)C1=C(C)NC(C)=C(S(=O)(=O)NC(C)C)C1c1cccc([N+](=O)[O-])c1 (stereo not given) | 155 to 158 °C |
| O=C(CSCc1ccc2c(c1)OCO2)NO | 127 to 128 °C |
| CC(C)Sc1nc(-c2ccc(Cl)cc2)c(CCC(=O)O)o1 | 132 to 133 °C |
| CCCCC1N=c2ccc(OCC)c(C(=O)OCC)c2=NC1=O (stereo not given) | 168 to 169 °C |
| CON1C=C2N=NC3=C(N2C1)N(c1cc(Cl)ccc1Cl)CC(C)=C3 | 159 to 162 °C |
| O=C1CCNC(=O)C1C(=O)c1ccc(Cl)cc1[N+](=O)[O-] (stereo not given) | 161 to 164 °C |
| CCCNC(=O)Nc1ccccc1C(=O)OCC | 98 to 99 °C |

| SMILES | melting point |
| --- | --- |
| CCOC(=O)Cc1ccc(CCNS(=O)(=O)c2ccc(Cl)cc2)cc1 | 88 to 90 °C |
| CC(C)c1cccc(C(C)C)c1NC(=NCc1cccc(CCl)c1)Nc1c(C(C)C)cccc1C(C)C | 122 to 124 °C |
| COc1nc(NC(=O)NS(=O)(=O)CC(C)Cl)nc(OC)n1 (stereo not given) | 139 to 141 °C |
| CC(C)(C)NC(=O)NC(C)(C)C | 246 °C |
| COCCOC(=O)C1CCCCC1C(=O)Nc1cc(OC(C)C)c(Cl)cc1F (stereo not given) | 58 to 60 °C |
| COC(=O)c1c(OC)c([N+](=O)[O-])c(C(=O)OC)c(OC)c1[N+](=O)[O-] | 126 to 127 °C |
| N#CCCN(Cc1ccccc1)CC(O)CO (stereo not given) | 132 °C |
| CCSc1cc(C)nc(SCC)c1NC(=O)CCCCCCSc1nc2ccccc2[nH]1 | 151 to 156 °C |
| COc1cc(C(=O)NC2CC2)c(Cl)cc1O | 214 to 216 °C |
| Cc1nc(N2CCc3ccc(F)cc3CC2)c([N+](=O)[O-])c(=O)[nH]1 | > 200 °C |
| OC(Cc1ccc(Cl)cc1Cl)n1ccnc1 (stereo not given) | 139 to 141 °C |
| COC(=O)c1cc(OC)cc(C(=O)OC)c1 | 108 to 109 °C |
| CC(C)(C)c1cc(C(=O)Nc2cc(Cl)c(Cl)cc2NC(=O)NC23CC4CC(CC(C4)C2)C3)cc(C(C)(C)C)c1O | 203 to 207 °C |
| Cc1nc(=O)[nH]c2ccc(Cl)cc12 | > 270 °C |
| O=[N+]([O-])CS(=O)(=O)c1ccccc1F | 59 °C |

The remaining lines, values ahead:

| melting point | SMILES |
| --- | --- |
| 165 to 166 °C | Cc1nc(-c2ccc(Br)cc2)sc1C(=O)N[C@H](C)[C@](O)(Cn1cncn1)c1ccc(F)cc1F |
| 55 to 60 °C | C=Cc1cn(-c2c(Cl)cc(C(F)(F)F)cc2Cl)cc1C#N |
| 194 to 195 °C | CC#CCOc1ccc(/C=C/C(=O)Nc2ccccc2C(=O)O)cc1OC |
| 301 to 302 °C | O=C(O)c1ccc(-c2ncc(-c3ccc(F)cc3F)o2)cc1 |
| 221 to 223 °C | Cc1cc(NCc2ccc(-c3ccccc3C#N)cc2)n2nccc2n1 |
| 217 to 220 °C | Cn1c(=O)c2c(I)cccc2n2cnc(-c3noc(C4CC4)n3)c12 |
| 105 to 106 °C | COc1ccc(CCNC(=O)C(F)(F)F)cc1NC(C)=O |
| 83 to 85 °C | O=C(O)Cc1ccc(OCCCN2CCC(c3cn(CC4CC4)c4ccccc34)CC2)cc1 |
| 130 to 132 °C | Cn1nc(-c2c(Cl)cccc2Cl)nc1-c1ccc(Br)s1 |
| 159 to 161 °C | CC(OC1(c2ccccc2F)NOc2c(Cl)cccc21)C(=O)O (stereo not given) |
| 95 to 100 °C | CCOC(=O)c1c[nH]nc1-c1ccc(Cl)cc1 |
| 100 to 102 °C | O=C(c1cccnc1)C(Cc1ccc(F)cc1)c1ccccc1 (stereo not given) |
| 223 to 224 °C | CCNC(=O)c1cc2c(nc(C)n2C)c2c1CCC1(Cc3ccccc3C1)N2 |
| 173 to 176 °C | CCCc1nc2c(N)nc3cc(-c4cccc(NC(C)=O)c4)ccc3c2s1 |
| 138 to 141 °C | COC(=O)Cc1cccc(CCC(CO)n2cnc(C(N)=O)c2)c1 (stereo not given) |
| 288 °C | O=C(Nc1cn2cc(Cl)ccc2n1)c1ccc(C2(C(=O)O)CCCCC2)cc1 |
| 249 to 251 °C | O=C(O)c1cc(-n2c(-c3ccccc3)cc3c2CCc2cc(Cl)ccc2-3)ccc1O |
| 215 to 217 °C | CS(=O)(=O)c1ccc(-c2cnn(-c3cccs3)c(=O)c2-c2ccc(F)cc2)cc1 |
| 228 to 229 °C | O=C(O)c1cc(-c2cccc(C(F)(F)F)c2)c(=O)n2ccccc12 |
| > 380 °C | O=C(O)c1cccc(N2C(=O)c3ccc(C(=O)O)cc3C2=O)c1 |

| melting point | SMILES |
| --- | --- |
| 253 to 255 °C | O=C(O)c1ccc2c(c1-c1c(C(=O)O)ccc3c1OCO3)OCO2 |
| 70 °C | CCN(c1nc(C)cc(C(=O)c2ccc(F)cc2)n1)c1ccc(C(C)C)cc1Br |
| 190 to 192 °C | Cc1c(Cl)sc2c1c(-c1ccccc1)nc(=O)n2C |
| 233 °C | Sc1nc2ccccc2n1Cc1cc(Cl)cc(Cl)c1 |
| 93 to 95 °C | COC(=O)C(=Cc1cc(OC)cc(OC)c1)c1ccc(Oc2ccc(CO)cc2)cc1 |
| 254 to 256 °C | CC(SSc1ccccc1C(=O)Nc1ccc(S(N)(=O)=O)cc1)C(=O)NCC(=O)O (stereo not given) |
| 94 to 96 °C | O=C(c1ccc(OS(=O)(=O)C(F)(F)F)cc1OS(=O)(=O)C(F)(F)F)c1ccc(OS(=O)(=O)C(F)(F)F)cc1OS(=O)(=O)C(F)(F)F |
| 122 to 124 °C | CCOC(=O)C(=O)c1csc(NC(c2ccccc2F)c2ccccc2F)n1 |
| 168 to 171 °C | CC(C)OC(=O)N1CCC(c2nc3cc(-c4ccc(-n5cnnn5)cc4F)ccc3o2)CC1 |
| 88 to 90 °C | CN(C)C(=O)C(=O)c1ccc(Cl)cc1C(=O)c1ccccc1 |
| 125 to 128 °C | COC(=O)c1ccc(C(=O)N[C@@H](CC(C)C)C(=O)N[C@@H](C(C)C)[C@@H](O)c2c(-c3ccccc3)c2=O)cc1 |
| 126 to 127 °C | CCOC(=O)c1ccc(NCCOc2ccc(Br)c3ccccc23)cc1 |
| 170 to 175 °C | Cc1nc(-c2ccc(CCN3CCN(c4cccc(C(F)(F)F)c4)CC3)cc2)cs1 |
| 194 to 195 °C | Oc1c(-c2ccccc2)nn(Cc2ccccc2)c1-c1ccccc1 |
| 202 to 204 °C | CC(=O)N(C)c1ccc(-c2ccnc3c(C(=O)c4ccco4)cnn23)cc1 |
| 207 to 208 °C | COc1ccc(-c2cnc3[nH]cc(C(=O)C(C)(C)C)c3n2)cc1 |
| 132 °C | COCCOc1ccc(/C=C/C(=O)O)c(Oc2ncc(C(F)(F)F)cc2Cl)c1 |
| 117 to 119 °C | N#Cc1ccn(-c2ccc([N+](=O)[O-])cc2F)c1 |
| 68 to 70 °C | CC(C)(C)OC(=O)N1CC=C(c2ccc(Br)cc2)CC1 |
